Measurements: patent EP4817614A1, “COMPOSITION AND METHOD FOR TREATING AUTOIMMUNE DISEASES” (GNT Pharma Co., Ltd., priority 2023, dated 2025)

Experiments:
[1] = tested on: imiquimod (IMQ)-induced lupus model; experiment: imiquimod (IMQ)-induced lupus (SLE) mouse model; format: in vivo, Female BALB/C mice; conditions: for spleen index (organ weight/body weight x 100%): Fig. 1b; for follicle diameter / number of splenic follicles: H&E stained spleen sections, Fig. 2b-2c; for anti-dsDNA titers: SLE mouse serum, ELISA (IgG specific), Fig. 3
Procedure: The goal of this Example was to investigate the effects of compound 2 in the imiquimod (IMQ)-induced lupus model, which is widely used as one of the induced SLE models.
Female BALB/C mice weighing 18-20 g were supplied by Saeron Bio Co., Ltd. (Korea) and acclimatized for 7 days. The animals were housed in separate cages with free access to laboratory feed and water. During the experiment, the animals were maintained at 23±3°C and 50±10% relative humidity with a 12-hour light-dark cycle. The animals were treated according to a protocol approved by the Animal Ethics Committee of GNT Pharmaceuticals. The mice were randomly divided into four groups: a normal group (n=6), a control SLE group (vehicle group, n=8), an IMQ+Compound 2 group (Compound 2 treatment group, n=4), and an IMQ+N-acetylcysteine group (NAC treatment group, n=8). All IMQ treatment groups were administered 5% imiquimod cream (Aldara Cream, Dong-A Pharmaceutical Co., Ltd.) topically to the right ear at a dose of 1.25 mg daily every other day for 4 weeks. Compound 2 (5 mg/kg, twice daily) was orally administered to the IMQ+Compound 2 group for 4 weeks, followed by concurrent IMQ treatment. N-acetyl Cysteine (150 mg/kg, once daily, adjusted to pH 7.5-8.0) was administered intraperitoneally to the IMQ+NAC group for 4 weeks along with IMQ treatment.
Mice were anesthetized with pentobarbital at the end of the experiment. Blood was collected through cardiac blood sampling. Within 30 minutes of collection, serum was separated from whole blood using EDTA by centrifugation at 12,000 g for 10 minutes. The extracted spleen was weighed, then the tissue was heated to 60°C, washed with xylene, and immersed in ethanol at gradient concentrations. The sections were H&E stained (BBC Biochemical, Washington State Mount Vernon) and then imaging was performed under a microscope. Observation was conducted through five fields of view at 10x magnification, and the number of spleen alba pulps (follicles) was counted. In addition, the diameter of the spleen alba pulp was observed using a micrometer. The diameter of the alba pulp was measured vertically and horizontally, and the average was calculated. Using a commercially available enzyme-linked immunosorbent assay (ELISA) kit (LBIS Mouse anti-dsDNA ELISA, Fujifilm Wako Shibayagi Co., Ltd., Richmond, Virginia, USA) serum anti-dsDNA (IgG specific) concentration was analyzed.

EAE mouse model = experiment: experimental autoimmune encephalomyelitis (EAE) mouse model; format: in vivo, female C57BL/6 mice
Description: Multiple sclerosis (MS) is a neurological autoimmune disease in which the body's immune system attacks the cells of myelin, the protective sheath surrounding the […] of the brain and spinal cord. Until now, EAE has been well known as a preclinical model associated with multiple sclerosis. Therefore, an EAE mouse model was used to confirm the effects of compound 2 on autoimmune diseases.
The EAE mouse model was induced in 6-week-old female C57BL/6 mice. Mice were divided into three groups: 6 mice were placed in the normal group, and 8 mice were placed in the control EAE group (vehicle group) and the EAE + Compound 2 group (Compound 2 treatment group), respectively. In the mice, 200 µg of oligodendrocyte glycoprotein peptide myelin oligodendrocyte glycoprotein 35-55 (MOG35-55, Prospecbio , Israel) emulsified in 400 µg of complete Freund's adjuvant (CFA, Sigma, USA) was inoculated. The emulsion was injected into both sides of each mouse. Subsequently, 200 ng of pertussis toxin (Sigma, USA) was injected intraperitoneally on days 0 and 2. Compound 2 was injected intraperitoneally at a dose of 3.3 mg/kg every 24 hours for 7 days starting on day 9. In the control EAE group, PBS was injected intraperitoneally. Clinical signs associated with EAE were monitored daily and rated on a scale of 0 to 5: Grade 0, no apparent clinical symptoms; Grade 0.5, partial tail paralysis; Grade 1, tail paralysis or waddling gait; Grade 1.5, partial tail paralysis and waddling gait; Grade 2, tail paralysis and waddling gait; Grade 2.5, partial quadriplegia; Grade 3, unilateral limb paralysis; Grade 3.5, unilateral paralysis and partial paralysis of the other limb; Grade 4, bilateral paralysis; Grade 4.5, coma; Grade 5, death.
On day 25 after EAE induction, mice were euthanized by exposure to CO2, and spleens were extracted. RNA expression in the spleen was analyzed using Applied Biosystems™QuantStudio 5 qPCR system (Thermofisher, USA) with AMPIGENE qPCR Green Mix Hyrox (Thermofisher, USA), including […] forward and reverse primers (Bionics Korea) and SYBR green dye (Enzo Life Sciences, Farmingdale , NY, USA). The expression levels of each gene were standardized to glyceraldehyde 3-phosphate dehydrogenase (GAPDH) and compared to the expression levels of the normal or control EAE groups. To evaluate the effect of compound 2 on Treg, mouse splenocyte preparations were stained with the Treg detection kit (CD4/CD25/FoxP3) (Miltenyi Biotech, Germany) according to the manufacturer's instructions, and the Treg population was evaluated using flow cytometry. The data was analyzed using FlowJo™ 10.8.1 software.

[2] = tested on: imiquimod (IMQ)-induced psoriasis model; experiment: imiquimod (IMQ)-induced psoriasis mouse model; format: in vivo, Male BALB/C mice
Description: The goal of this Example was to investigate the effect of compound 2 in the imiquimod (IMQ)-induced psoriasis model, which is widely used as one of the induced psoriasis models.
For the experiment, psoriasis was induced using imiquimod (IMQ). The IMQ-induced psoriasis mouse model is one of the most widely used models for studying psoriasis. IMQ is a Toll-like receptor-7/8 (TLR-7/8) agonist used to treat actinic keratosis and basal cell carcinoma. It is known that topical application of IMQ cream to the skin of mice recruits immune cells and activates macrophages, monocytes, and dendritic cells to secrete inflammatory cytokines. The IMQ-induced psoriasis mouse model is known to be very similar to human psoriasis in terms of skin erythema, keratinization, epidermal changes (acanthosis), and inflammatory infiltration consisting of T cells, neutrophils, and dendritic cells.
Male BALB/C mice weighing 20-22 g were supplied by Saeron Bio Co., Ltd. (Korea) and acclimatized for 7 days. The animals were housed in separate cages with free access to laboratory feed and water. During the experiment, the animals were maintained at 23±3°C and 50±10% relative humidity with a 12-hour light-dark cycle. The animals were treated according to a protocol approved by the Animal Ethics Committee of GNT Pharmaceuticals. The mice were randomly divided into three groups: a normal group (n=5), a control psoriasis group (Vehicle group, n=8), and an IMQ+Compound 2 group (compound 2 treatment group, n=9). All IMQ treatment groups were administered 5% imiquimod cream (Aldara Cream, Dong-A Pharmaceutical Co., Ltd.) topically to shaved backs at a dose of 62.5 mg per day for 6 days. Compound 2 (5 mg/kg, twice daily) was orally administered to the IMQ+Compound 2 group for 6 days, followed by IMQ treatment.
To evaluate the anti-psoriatic effects of compound 2, the severity of psoriasis was monitored using an IMQ-induced psoriasis mouse model. The Psoriasis Skin PASI score is used to assess the severity of skin lesions in mice.
After confirming the therapeutic effect of compound 2 on psoriasis-like symptoms in mice, histological analysis was performed to identify histological changes occurring in psoriatic skin and methods of improvement.
Mice were anesthetized with pentobarbital at the end of the experiment. Blood was collected by cardiac blood sampling. Within 30 minutes of collection, serum was separated from whole blood using EDTA by centrifugation at 12,000 g for 10 minutes. The weight of the extracted spleen was measured.

[3] = target: T1, microsomal prostaglandin E synthase-1 (mPGES-1) (Homo sapiens, UniProt O14684); conditions: previous studies; cited from earlier work
T1 sequence (O14684 1-152): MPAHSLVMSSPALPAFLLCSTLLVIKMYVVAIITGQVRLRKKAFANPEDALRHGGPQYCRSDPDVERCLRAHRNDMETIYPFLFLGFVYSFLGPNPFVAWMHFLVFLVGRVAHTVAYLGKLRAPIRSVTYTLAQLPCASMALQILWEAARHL

[4] = tested on: mouse model of amyotrophic lateral sclerosis; conditions: previous studies, ALS mouse model; cited from earlier work
[5] = SLE mice, 4 weeks, compound 2 5 mg/kg twice daily oral, NAC 150 mg/kg once daily i.p., versus control SLE group
[6] = spleen RNA, qPCR, versus control EAE group, Fig. 6
[7] = Masson's trichrome staining, Fig. 10

**Q.** For `CC(=O)N[C@@H](CS)C(=O)O` [NAC, N-acetylcysteine, reference compound], which “spleen index (organ weight/body weight x 100%)” value [1, 5] is on record?
**A.** no significant difference

**Q.** And the follicle diameter ([1]; SLE mice)?
**A.** did not show a beneficial effect

**Q.** What about the “number of splenic follicles” value ([1]; SLE mice) of the same compound?
**A.** did not show a beneficial effect

**Q.** What about the anti-dsDNA titers [1] of the same compound?
**A.** no effect

**Q.** Which spleen size ([1]; SLE mice, 4 weeks, compound 2 5 mg/kg twice daily oral, NAC 150 mg/kg once daily i.p., versus control SLE group, Fig. 1a) does the source give for `O=C(O)c1cc(NCCc2ccc(C(F)(F)F)cc2)ccc1O` [compound 2, 2-hydroxy-5-[2-(4-trifluoromethyl-phenyl)-ethylamino]-benzoic acid] here?
**A.** smaller than that of the control SLE group

**Q.** And the “spleen index (organ weight/body weight x 100%)” value [1, 5]?
**A.** significantly lower than that of the control SLE group

**Q.** And the follicle diameter ([1]; SLE mice)?
**A.** significantly decreased

**Q.** What about the “number of splenic follicles” value ([1]; SLE mice) of the same compound?
**A.** significantly increased

**Q.** And the anti-dsDNA titers [1]?
**A.** significantly reduced

**Q.** What about the onset date (EAE mouse model; EAE mice, compared with control EAE group) of the same compound?
**A.** similar

**Q.** What about the Clinical signs (EAE mouse model; EAE mice, compound 2 3.3 mg/kg i.p. every 24 hours for 7 days from day 9, scale 0 to 5, Fig. 4) of the same compound?
**A.** effectively alleviated

**Q.** What about the CD206 expression (EAE mouse model; [6]) of the same compound?
**A.** significantly increased

**Q.** What about the “expression of IFN-γ” value (EAE mouse model; [6]) of the same compound?
**A.** lower

**Q.** And the “expression of TNF-α” value (EAE mouse model; [6])?
**A.** lower

**Q.** What about the iNOS expression (EAE mouse model; [6]) of the same compound?
**A.** significantly lower

**Q.** What about the “number of Treg cells (CD4+CD25+Foxp3+)” value (EAE mouse model; splenocytes, flow cytometry, versus control EAE group, Fig. 7) of the same compound?
**A.** significantly higher

**Q.** And the “epidermal thickening (acanthosis) and elongation of the rate ridges” value ([2]; H&E histopathology of skin lesions, versus IMQ alone, Fig. 9a)?
**A.** significant inhibition

**Q.** And the epidermal thickness ([2]; H&E-stained dorsal skin, Fig. 9b)?
**A.** significantly reduced

**Q.** What about the spleen index ([2]; IMQ-induced psoriasis mice, versus control psoriasis group, Fig. 11b) of the same compound?
**A.** decreased

**Q.** And the “spleen size and weight” value ([2]; IMQ-induced psoriasis mice, Fig. 11a)?
**A.** decreased

**Q.** What about the “collagen pattern in the dermis” value [2, 7] of the same compound?
**A.** much more compressed collagen pattern

**Q.** And the psoriasis-like inflammation [2, 7]?
**A.** potently inhibited

**Q.** What about the PASI scores ([2]; psoriasis mice, compound 2 5 mg/kg twice daily oral for 6 days, versus control psoriasis group, Figs. 8b-8e) of the same compound?
**A.** significantly lower score than the control psoriasis group

**Q.** And the mPGES-1 inhibition [3]?
**A.** inhibitor at nanomolar concentrations

**Q.** What about the “neuronal death, motor function and lifespan” value [4] of the same compound?
**A.** block neuronal death, lateral sclerosis, and autophagocytosis formation, as well as activate motor function and increase lifespan
